What was measured:
Format in all cases: in vivo, C57/BL6 male mice
[1] = test system: mice that were allowed to take high fat diet (HFD); assay: High fat diet (HFD) hepatic steatosis animal model; settings: HFD mixed with 200 mg/kg/day (AG-200), 12 weeks, FIG. 6
Source text: Although a MCDD animal model is a model that represents nonalcoholic steatohepatitis occurrence, the MCDD animal model cannot represent a risk factor that accompanies metabolic syndrome. In order to overcome such limitation, liver tissues of mice that were allowed to take high fat diet (HFD) as a general animal model with respect to hepatic steatosis were used for the comparison.
The animal model only had simple hepatic steatosis without inflammation unlike the MCDD group.
Alkoxy glycerol, as a plasmalogen precursor, was added to the HFD feed that induces obesity and non-alcoholic hepatic steatosis, and the feed was administrated to the animal model, and the change was confirmed.
First, the control group (CON) was prepared by allowing 7-week-old C57/BL6 male mice to take a general feed including 7% of fat, 18% of protein, and 75% of carbohydrate, and the HFD group was prepared by allowing 7-week-old C57/BL6 male mice to freely take a HFD feed including 60% of fat, 18% of protein, and 22% of carbohydrate.
Also, the AG group (AG-200) was allowed to take the HFD mixed with 200 mg/kg/day of alkoxy glycerol. The experimental groups were allowed to take the corresponding feeds for the total of 12 weeks, and liver histological changes in the livers were confirmed in the same manner in Example 4, and the plasma ALT levels were confirmed in the same manner as in Example 1.

[2] = test system: mice treated with methionine-choline deficient diet (MCDD); assay: Plasma ALT measurement in MCD diet steatohepatitis mice; settings: MCD diet together with 100 mg/kg/day, 6 weeks, vs MCDD group, FIG. 1
Method: (§1) A methionine-choline deficient (MCD) feed to induce steatohepatitis was purchased from Dyets (Bethlehem, Pa., USA). Alkoxy glycerol (batyl alcohol), as a plasmalogen precursor, was purchased from Sigma (St Louis, Mo., USA).
(§2) 2% BSA was prepared in a DMEM:F12 medium, and plasmalogen precursor alkoxy glycerol dissolved in ethanol was added thereto After incubation at 70° C. for 20 minutes, the mixture was inoculated in a manner of observing crystal disappearance. 7-week-old C57/BL6 male mice were brought in to an experimental animal room, stabilized for 7 days, and then separated into a general feed group, as a control group, an MCD diet group (an MCDD group), and a group taken a mixture of MCD diet and 100 mg/kg/day of plasmalogen precursor alkoxy glycerol (an AG group), where each of the groups had six mice. The test feeds were taken for the total of 6 weeks, and the mice were allowed to only take water for the following 12 hours. Then, blood samples were obtained from the mice, and liver tissues were harvested from each of the mice. […]
Blood samples were obtained from venae cavae of the experimental animals, the plasma was separated from the blood samples by using a centrifuge (at 300 rpm for 15 minutes), and alanine aminotransferase (ALT) of the plasma was measured by using a kit of Labs Biotechnology (London, Canada). […]

[3] = test system: mice treated with methionine-choline deficient diet (MCDD); assay: Neutral fats (triglyceride) in liver tissue of MCD diet mice; settings: MCD diet together with 100 mg/kg/day, 6 weeks, FIG. 2
Method: as §1, §2
Neutral fats in the liver tissue was measured by using a triglyceride (GPO-Trinder) kit purchased from Sigma. […] Then, a triglyceride reagent A was added thereto, allowed to react at room temperature for 5 minutes, and the measurement was performed by using an Emax precision micro plate reader (Molecular Devices, Sunnyvale, Calif.) at 540 nm.

[4] = test system: mice treated with methionine-choline deficient diet (MCDD); assay: Liver histological observation (H&E, trichrome C), MCD diet mice; settings: FIG. 4
Method: as §1
2% BSA was prepared in a DMEM:F12 medium, and plasmalogen precursor alkoxy glycerol dissolved in ethanol was added thereto After incubation at 70° C. for 20 minutes, the mixture was inoculated in a manner of observing crystal disappearance. 7-week-old C57/BL6 male mice were brought in to an experimental animal room, stabilized for 7 days, and then separated into a general feed group, as a control group, an MCD diet group (an MCDD group), and a group taken a mixture of MCD diet and 100 mg/kg/day of plasmalogen precursor alkoxy glycerol (an AG group), where each of the groups had six mice. The test feeds were taken for the total of 6 weeks, and the mice were allowed to only take water for the following 12 hours. Then, blood samples were obtained from the mice, and liver tissues were harvested from each of the mice. The harvested liver tissues were instantly rapid-frozen in dry ice and stored with plasma in a freezer at −70° C. […]
The segment was died with hematoxylin-eosin (H&E) and trichrome C, and examined and analyzed by using an optical microscope.

[5] = test system: tumor necrosis factor (TNF-α) and monocyte chemotactic protein-1 (MCP-1) gene expression; assay: Inflammatory cytokine gene expression in liver tissue by real-time PCR, MCD diet mice; settings: MCD diet with 100 mg/kg/day, 6 weeks, FIG. 3
Method: as §1
2% BSA was prepared in a DMEM:F12 medium, and plasmalogen precursor alkoxy glycerol dissolved in ethanol was added thereto After incubation at 70° C. for 20 minutes, the mixture was inoculated in a manner of observing crystal disappearance. 7-week-old C57/BL6 male mice were brought in to an experimental animal room, stabilized for 7 days, and then separated into a general feed group, as a control group, an MCD diet group (an MCDD group), and a group taken a mixture of MCD diet and 100 mg/kg/day of plasmalogen precursor alkoxy glycerol (an AG group), where each of the groups had six mice. The test feeds were taken for the total of 6 weeks, and the mice were allowed to only take water for the following 12 hours. Then, blood samples were obtained from the mice, and liver tissues were harvested from each of the mice. The harvested liver tissues were instantly rapid-frozen in dry ice and stored with plasma in a freezer at −70° C.
In order to confirm change in an inflammation degree of liver tissues, gene expression of a tumor necrosis factor (TNF-α) and monocyte chemotactic protein-1 (MCP-1), which are typical inflammatory cytokines, were confirmed by real-time PCR.

CCCCCCCCCCCCCCCCCCOCC(O)CO (centres unmarked) [alkoxy glycerol, batyl alcohol]
hepatic steatosis occurrence (liver histology) [1]: significant improvement | lipid content in the liver tissues [1]: significant improvement | plasma ALT level [1]: remarkable reduction | change in plasma ALT [2]: significantly improvement | change in amount of neutral fats of liver tissues [3]: significantly improvement | steatohepatitis, H&E and trichrome C histology ([4]; MCD diet with 100 mg/kg/day, 6 weeks): relieved to the similar level with that of the control group | liver fibrosis ([4]; MCDD together with alkoxy glycerol): significant improvement | expression of inflammatory cytokine genes (TNF-α, MCP-1) in liver tissue [5]: suppressed expression of inflammatory cytokine genes
